# Patent US20260258113A1, “BETA GLOBIN MIMETIC PEPTIDES AND THEIR USE” (THE UNITED STATES OF AMERICA, AS REPRESENTED BY THE …, priority 2022, published 2026)
# “And” between values parts separate entries of the source, which are not always exact repeats. Equal entries are not always repeated. “Also recorded” adds a separate entry of the source.
# Columns and labels:
# human omental arteries = assay: Isolated artery pressure myography: vasoconstriction to phenylephrine after alpha globin mimetic or control peptide, then L-NAME; assay type: cell-based; set-up: key to Top (Mean) / Bottom (Mean): fitted inner diameter, % of baseline; settings: for Bottom (Mean) / Top (Mean): four parameter logistic fit of inner diameter (percentage of baseline) vs phenylephrine; for maximal constriction to phenylephrine (4-PL minimum): pairs of omental arteries from five donors; for effect on vasoconstriction response to PE: omental arteries incubated with peptide, 5 μmol/L
# Description: To test this hypothesis, ex vivo pressure myography was performed on pairs of omental arteries obtained from each of five donors in response to escalating doses of the alpha adrenoreceptor agonist phenylephrine (responses fit with four parameter logistic regression best-fit values, FIGS. 6A-6B).
# Isolated artery pressure myography: The pressure myography methodology utilized here for omental arteries is consistent with published protocols for assessing reactivity of mesenteric articles using a DMT pressure myograph (Shahid and Buys, JoVE J Vis Exp. 7.76:50328, 2013). Arteries […] in diameter were dissected from omental tissue on ice and transferred to the culture myograph wells (DMT-USA CM204); arterial inner diameter was measured by video microscope (DMT-USA) with digital calipers (MyoVIEW, DMT-USA).
# All arteries used developed at least 20% myogenic tone after pressurization, consistent with standards for pressure myography (Shahid and Buys, JoVE J Vis Exp. 7.76:50328, 2013; Butcher et al., JoVE J Vis Exp. 28.62:3674, 2012; Jadeja et al., JoVE J Vis Exp. 6.101:e50997, 2015). Arteries were assessed for vasoconstriction response to the alpha-1-adrenoreceptor agonist phenylephrine (PE) [10^−9-10^−3] M (Sigma-Aldrich). Dose response to PE was then assessed after incubation with either the alpha globin mimetic peptide HbαX or a control peptide (5 μmol/L in KH buffer), and again following incubation with the NOS inhibitor No-Nitro-L-arginine methyl ester HCl (L-NAME, 10^−4 M)(Sigma-Aldrich).
# [1] = tested on: isolated human omental arteries; assay: Isolated artery pressure myography: vasoconstriction to phenylephrine after beta globin mimetic peptides; assay type: cell-based; settings: peptide 5 μmol/L for 45 minutes at 37° C., ex vivo
# Description: Collection of omental arteries: Human omental tissue was collected from patients during clinically indicated abdominal operations at the NIH Clinical Center. All patients provided informed consent for tissue procurement on IRB-approved protocol 13-C-0176 (NCT01915225). Tissue removed by the surgeon was immediately submerged in cold 4° C. Krebs-HEPES (KH) buffer (pH 7.4) and kept on ice during dissection and artery isolation. Small arteries were dissected away from the tissue in cold Krebs-HEPES (KH) buffer (Boston BioProducts).
# Identification of beta globin mimetic peptides: Tetrameric hemoglobin was docked with dimer eNOS oxygenase domain using molecular docking algorithms (HADDOCK2). […]
# Isolated artery pressure myography: The pressure myography methodology utilized here for omental arteries is consistent with published protocols for assessing reactivity of mesenteric articles using a DMT pressure myograph. […] Digital video calipers were used to measure in the inner diameter of cannulated arteries (MyoVIEW, DMT-USA) at two positions, and the average of both measurements was recorded.
# All arteries developed at least 20% myogenic tone after pressurization, consistent with standards for pressure myography. Arteries were assessed for vasoconstriction response to the alpha-1-adrenoreceptor agonist phenylephrine (PE, Sigma-Aldrich) at successively higher doses ranging from 10^−9 to 10^−3 molar. […]
# [2] = tested on: canine resistance arteries; assay: Pressure myography of canine arteries: phenylephrine dose escalation after Hbb-1; assay type: cell-based
# Description: For these studies, omental tissue was removed from a canine laboratory animals soon after euthanasia. Mesenteric arteries 100-300 um in diameter were dissected out of the tissue and cannulated on glass pipettes. The arteries were incubated in a physiologic buffer solution (Krebs-Henseleit) at 37 degrees Celsius and pressured to 60 mm Hg. To assess vasoreactivity, escalating doses of phenylephrine were added to the incubation bath and artery diameter was measured using video microscopy with edge detection and digital calipers. The artery was incubated with 5 uM Hbb-1 peptide (including the tat cell permeability sequence) for 45 minutes. A second phenylephrine dose escalation was applied, and vasoconstriction was measured. The entire experiment was repeated with a second animal donor. In FIG. 20, artery diameter is presented as a percentage of baseline resting diameter at 60 mm Hg of pressure. The means and standard error of the mean were plotted for each condition and phenylephrine dose.
# [3] = target: T1, association of alpha globin with eNOS (Mus musculus, UniProt P70313); settings: mice; cited from earlier work
# T1 construct: host or cells: mice (in vivo), endogenous proteins of resistance arteries
# T1 sequence (P70313 2-1202 limits assumed): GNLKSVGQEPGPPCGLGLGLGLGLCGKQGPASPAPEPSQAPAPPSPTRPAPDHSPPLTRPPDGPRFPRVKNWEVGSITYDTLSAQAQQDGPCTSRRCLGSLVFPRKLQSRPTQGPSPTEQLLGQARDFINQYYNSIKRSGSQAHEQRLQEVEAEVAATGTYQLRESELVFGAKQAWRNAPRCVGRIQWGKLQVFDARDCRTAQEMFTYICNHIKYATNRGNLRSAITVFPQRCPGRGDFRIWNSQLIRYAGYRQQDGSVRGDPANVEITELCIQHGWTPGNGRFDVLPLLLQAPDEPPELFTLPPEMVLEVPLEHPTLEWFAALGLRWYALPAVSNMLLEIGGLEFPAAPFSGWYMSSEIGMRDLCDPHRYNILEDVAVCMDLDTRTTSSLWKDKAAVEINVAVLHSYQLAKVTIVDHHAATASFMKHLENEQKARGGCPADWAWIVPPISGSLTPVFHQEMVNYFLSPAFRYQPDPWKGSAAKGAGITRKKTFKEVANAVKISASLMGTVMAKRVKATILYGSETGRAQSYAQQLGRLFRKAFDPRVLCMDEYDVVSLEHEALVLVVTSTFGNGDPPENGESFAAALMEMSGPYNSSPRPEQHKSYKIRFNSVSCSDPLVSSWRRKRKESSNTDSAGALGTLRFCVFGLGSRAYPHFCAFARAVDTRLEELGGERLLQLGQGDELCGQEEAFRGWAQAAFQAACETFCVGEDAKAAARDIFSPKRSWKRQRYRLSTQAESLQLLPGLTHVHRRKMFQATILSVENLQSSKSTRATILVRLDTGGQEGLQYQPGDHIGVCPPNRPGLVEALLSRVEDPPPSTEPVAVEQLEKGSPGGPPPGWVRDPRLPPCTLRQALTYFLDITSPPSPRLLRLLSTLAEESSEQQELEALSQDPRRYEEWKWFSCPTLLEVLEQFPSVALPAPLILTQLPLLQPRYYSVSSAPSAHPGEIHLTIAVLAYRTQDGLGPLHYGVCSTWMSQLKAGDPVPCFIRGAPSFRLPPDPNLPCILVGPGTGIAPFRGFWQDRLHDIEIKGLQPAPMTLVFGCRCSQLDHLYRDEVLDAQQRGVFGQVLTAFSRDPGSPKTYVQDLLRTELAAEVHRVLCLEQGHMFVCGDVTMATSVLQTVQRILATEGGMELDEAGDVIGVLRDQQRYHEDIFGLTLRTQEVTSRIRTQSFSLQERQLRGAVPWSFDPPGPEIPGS
# [4] = n = 5 human donors, peptide 5 μmol/L, L-NAME 10^-4 M
# [5] = log of phenylephrine concentration, four parameter logistic fit, n = 5 human donors, peptide 5 μmol/L, L-NAME 10^-4 M
# [6] = four parameter logistic fit, n = 5 human donors, peptide 5 μmol/L, L-NAME 10^-4 M
compound,measurement,setting,value
"COC(=O)[C@@H](N)CCCN=C(N)N[N+](=O)[O-].Cl [L-NAME, No-Nitro-L-arginine methyl ester HCl]",effect of L-NAME on vasoconstriction to PE,human omental arteries; control peptide-treated arteries,no effect
same,effect of L-NAME on vasoconstriction to PE,human omental arteries; mimetic peptide-treated arteries,vasoconstriction was restored
same,phenylephrine-induced vasoconstriction after incubation with L-NAME,"human omental arteries; mimetic peptide-treated arteries, L-NAME 10^-4 M",41.9±2.0 % of baseline
"CNC[C@H](O)c1cccc(O)c1 [Phenylephrine (PE), phenylephrine]",IC50,"human omental arteries; Homo sapiens, log of phenylephrine concentration, four parameter logistic fit, n = 5 human donors, peptide 5 μmol/L, L-NAME 10^-4 M",1 µM
same,Bottom (Mean),human omental arteries; [4],46.11 and 39.08
same,Top (Mean),human omental arteries; [4],100.30 and 100.12
same,LogIC50 (Mean),human omental arteries; [5],−5.891
same,maximal constriction to phenylephrine (4-PL minimum),human omental arteries; peptide 5 μmol/L,39.1±3.2 % of baseline diameter and 46.1±5.5 % of baseline diameter
TPEEKSAVTALWGK [Hbb-1],effect on human arterial vasoconstriction responses to phenylephrine,[1],can inhibit vasoconstriction
same,effect on human arterial vasoconstriction responses to phenylephrine,[1]; listed as Hbb-Peptide-1,potent vasodilatory effects
same,increase of phenylephrine dose needed to achieve the same degree of vasoconstriction,"[2]; 5 uM Hbb-1 peptide (including tat sequence) for 45 minutes, two animal donors",approximately 100 times
same,effect on phenylephrine-induced vasoconstriction in canine arteries,[2]; 5 uM Hbb-1 peptide for 45 minutes,can inhibit vasoconstriction; also recorded: shifted the vasoconstrictive response to phenylephrine to the right; also recorded: inhibits phenylephrine-induced vasoconstriction
YGRKKRRQRRRFPYFSTKLTT [control peptide],Bottom (Mean),human omental arteries; [4],45.78
same,Top (Mean),human omental arteries; [4],100.40
same,HillSlope (Mean),human omental arteries; [6],−0.623
same,LogIC50 (Mean),human omental arteries; [5],−6.020
same,effect on vasoconstriction response to PE,human omental arteries,no significant difference
same,maximal constriction to phenylephrine (4-PL minimum),human omental arteries; peptide 5 μmol/L,39.1±3.2 % of baseline diameter
YGRKKRRQRRRLSFPTTKTYF [HbαX],Bottom (Mean),human omental arteries; [4],64.59
same,Top (Mean),human omental arteries; [4],99.93
same,HillSlope (Mean),human omental arteries; [6],−0.549
same,disruption of NO-scavenging in human vessels,human omental arteries; human vessels,potent disruptor of NO-scavenging
same,LogIC50 (Mean),human omental arteries; [5],−5.575
same,effect on vasoconstriction response to PE,human omental arteries; listed as alpha globin mimetic peptide,significantly inhibited the vasoconstriction response to PE; also recorded: diminished this constriction
same,maximal constriction to phenylephrine (4-PL minimum),human omental arteries; peptide 5 μmol/L,64.6±1.6 % of baseline diameter
same,alpha-1-adrenergic vasoconstriction,[3],reduced alpha-1-adrenergic vasoconstriction
same,angiotensin-2 induced hypertension,[3],protection against angiotensin- 2 induced hypertension
same,association of alpha globin with eNOS in vivo,[3],disrupt the association of alpha globin with eNOS
same,mean arterial blood pressure,[3],lower mean arterial blood pressure
